From patent publication US6730655B2, “Biphenyl diquaternary ammonium compounds” (Ciba Specialty Chemicals Corporation, priority 2000, dated 2004) come the findings set out here.

Experiment [1] has as its system Escherichia coli NCTC 8196. The following applies: Mueller Hinton agar, 2 days at 37° C. From the text:
(§1) Determination of the Minimum Inhibitory Concentration (MIC Value)
(§2) The procedure to determine the antimicrobial activity of the compounds of the invention is as follows:
(§3) Casein/soybean flour peptone bouillon for the preparation of pre-cultures of the test bacteria and yeast.
(§4) Mueller Hinton agar for determining the MIC value of bacteria.
(§5) deionised water or EtOH as solvent.
(§6) The test substances are predissolved in deionised water or in ethanol and incorporated in a dilution series in agar warmed to 47-50° C.
(§7) Bacteria and yeast are incubated for from 18 to 24 hours at 37° C. in casein/soybean flour peptone bouillon.
(§8) All the test organisms are adjusted to an organism count of from 10^6 to 10^7 CFU/ml using 0.85% sodium chloride solution.
(§9) The organism suspensions are each pipetted in an amount of 10 μl onto an agar plate containing the test substance. The test batches are then incubated for 2 days at 37° C. (bacteria and yeast) or for 3 days at 28° C. (Aspergillus niger). In order to check the influence of the solvent used (deionised water, ethanol), organism suspensions are in addition incubated on agar plates without test substances (control plates).
(§10) After incubation, the growth of the microorganisms on the test substances is compared with the control plates. The minimum inhibitory concentration (MIC value) is the concentration of substance at which (compared with the control plates) a clear inhibition of growth of the test organisms is to be ascertained.
(§11) The microbiological data ascertained are compiled in Table 1.

Experiment [2] concerns Staphylococcus hominis DSM 20328. The following applies: Mueller Hinton agar, 2 days at 37° C.
Text: as §1, §2, §3, §4, §5, §6, §7, §8, §9, §10, §11

Experiment [3] concerns Candida albicans ATCC 10231. The conditions noted are these: Sabouraud agar, 2 days at 37° C.
Text: as §1, §2, §3
(§12) Sabouraud agar for determining the MIC value of Aspergillus niger and Candida albicans.
as §5, §6, §7, §8, §9, §10, §11

Experiment [4] has as its system Aspergillus niger ATCC 6275. The following applies: Sabouraud agar, 3 days at 28° C. The method, then:
as §1, §2
Sabouraud agar for the pre-culture of Aspergillus niger.
as §12, §5, §6
The mould is cultured on Sabouraud agar and rinsed off with 0.85% sodium chloride solution containing 0.01% Triton X-100.
as §8, §9, §10, §11

Experiment [5] deals with Staphylococcus aureus ATCC 6538. The conditions noted are these: test substance 1600 ppm, contact time 5 minutes at 20° C., 0.3% bovine serum albumin.
Procedure: Suspension Test to Determine the Bactericidal Activity in Accordance with the European Standard According to EN 1276
5 minutes at 20° C. (+/−1° C.).
Inactivation Medium After the Contact Time
D/E neutralisation solution (Dey-Engley, consisting of 0.1% sodium thioglycolate,
0.5% Tween 80, and also 0.7% lecithin and sterile, deionised water ad 100%).
Casein/soybean flour peptone agar with lecithin, L-histidine, and Tween 80 as inactivating agent
(Merckoplate No. 18360, Merck-Darmstadt).
Incubation of the Test Plates
Precaration of the Pre-Culture
The bacteria cultures are cultured on casein/soybean flour peptone slant agar and incubated for from 18 to 24 hours at 37° C. They are then rinsed off with water and adjusted to a bacteria count of 1.5×10^8-5×10^8 CFU/ml.
All of the reagents required for the test are first equilibrated at 20° C. (+/−1° C.). 1.0 ml of 0.3% bovine serum albumin (in deionised water) is introduced into a test tube. After the addition of 1.0 ml of bacteria suspension (1.5×10^8-5×10^8 CFU/ml), the solution is mixed and maintained at 20° C. for 2 minutes (+/−10 seconds). 8.0 ml of the test substance (2000 ppm solution in water) are then added. The mixture is incubated for 5 minutes at 20° C. (+/−1° C.). […] After the period of incubation, the number of colonies is counted and quoted as a logarithmic reduction (log 10) of the bacteria.

For the molecule `CCCCCC[N+](C)(C)Cc1ccc(-c2ccc(C[N+](C)(C)CCCCCC)cc2)cc1.[Cl-].[Cl-]` [Compound of formula (2), 4,4′-Bis(N,N-dimethyl-N-hexyl-ammoniummethyl)biphenyl dichloride], in experiment [1], the “MIC values E. coli” value is 5 ppm. Also, in experiment [2], the “MIC values S. hominis” value is 50 ppm. Moreover, the “MIC values C. albicans” value in experiment [3] was determined as 50 ppm. The “MIC values A. niger” value in experiment [4] is reported as 2.5 ppm. Also, the “Logarithmic reduction Staphylococcus aureus” value in experiment [5] turned out to be 5.6 log 10.

As to `CCCCCCCC[N+](C)(C)Cc1ccc(-c2ccc(C[N+](C)(C)CCCCCCCC)cc2)cc1.[Cl-].[Cl-]` [Compound of formula (3), 4,4′-Bis(N,N-dimethyl-N-octyl-ammoniummethyl)biphenyl dichloride], the “MIC values E. coli” value in experiment [1] turned out to be 1 ppm. Further, the “MIC values S. hominis” value in experiment [2] was 5 ppm. Also, in experiment [3], the “MIC values C. albicans” value turned out to be 10 ppm. The “MIC values A. niger” value in experiment [4] is 2.5 ppm. In experiment [5], the “Logarithmic reduction Staphylococcus aureus” value was 5.6 log 10.

For the molecule `CCCCCCCCCCCC[N+](C)(C)Cc1ccc(-c2ccc(C[N+](C)(C)CCCCCCCCCCCC)cc2)cc1.[Cl-].[Cl-]` [Compound of formula (4), 4,4′-Bis(N,N-dimethyl-N-dodecyl-ammoniummethyl)biphenyl dichloride], the “MIC values E. coli” value in experiment [1] was 250 ppm. For the same molecule, the “MIC values S. hominis” value in experiment [2] is reported as 10 ppm. In addition, the “MIC values C. albicans” value in experiment [3] turned out to be 25 ppm. The “MIC values A. niger” value in experiment [4] came out at 100 ppm.

In the case of `CCCCCCCCCCCCCCCC[N+](C)(C)Cc1ccc(-c2ccc(C[N+](C)(C)CCCCCCCCCCCCCCCC)cc2)cc1.[Cl-].[Cl-]` [Compound of formula (5), 4,4′-Bis(N,N-dimethyl-N-hexadecyl-ammoniummethyl)biphenyl dichloride], the “MIC values E. coli” value in experiment [1] was 1000 ppm. For the same molecule, in experiment [2], the “MIC values S. hominis” value amounted to 100 ppm. Besides, in experiment [3], the “MIC values C. albicans” value came out at 500 ppm. The “MIC values A. niger” value in experiment [4] came to 1000 ppm.
